Active and inactive are the calls of the source. The rule behind the calls is not given here.
What was measured:
Hepatitis C virus [1] = experiment: Antiviral activity against HCV J6/JFH/JC-1 infected in human Huh7.5 cells assessed as inhibition of viral core protein levels at 0.05 uM preincubated for 2 hrs followed addition of Huh7.5 cells for 4 hrs measured within 72 hrs by Western blot method; assay type: functional, organism-based; details: Hepacivirus hominis
Hepatitis C virus [2] = experiment: Antiviral activity against HCV J6/JFH/JC-1 infected in human Huh7.5 cells assessed as inhibition of viral RNA replication after 72 hrs by qRT-PCR method; assay type: functional, organism-based, Hepacivirus hominis; details: J6/JFH/JC-1, Huh7.5, 72 h
Hepatitis C virus [3] = experiment: Antiviral activity against HCV J6/JFH/JC-1 infected in human Huh7.5 cells assessed as inhibition of NS3/4A levels at 0.05 uM preincubated for 2 hrs followed by centrifugation for 4 hrs and subsequent addition of Huh7.5 cells measured within 72 hrs by Western blot method; assay type: functional, organism-based; details: Hepacivirus hominis
Hepatitis C virus [4] = experiment: Antiviral activity against HCV J6/JFH/JC-1 infected in human Huh7.5 cells assessed as inhibition of NS3/4A protein levels at 0.5 uM by Western blot method; assay type: functional, organism-based; details: Hepacivirus hominis, TDE = time-dependent effect
Hepatitis C virus [5] = experiment: Antiviral activity against HCV J6/JFH/JC-1 infected in human Huh7.5 cells assessed as inhibition of viral core protein levels at 0.5 uM by Western blot method; assay type: functional, organism-based; details: Hepacivirus hominis, TDE = time-dependent effect
Hepatitis C virus [6] = experiment: Antiviral activity against HCV infected in human GS4.3 cells assessed as inhibition of NS3/4A levels at 0.5 uM treated with fresh media containing compound every 2 days measured after 6 days by Western blot method; assay type: functional, organism-based; details: Hepacivirus hominis
Hepatitis C virus [7] = experiment: Antiviral activity against HCV infected in human GS4.3 cells assessed as inhibition of viral core protein levels at 0.5 uM treated with fresh media containing compound every 2 days measured after 6 days by Western blot method; assay type: functional, organism-based; details: Hepacivirus hominis
Hepatitis C virus [8] = experiment: Antiviral activity against HCV J6/JFH/JC-1 infected in human Huh7.5 cells assessed as inhibition of NS3/4A levels at 0.05 uM preincubated for 2 hrs followed addition of Huh7.5 cells for 4 hrs measured within 72 hrs by Western blot method; assay type: functional, organism-based; details: Hepacivirus hominis
Hepatitis C virus [9] = experiment: Antiviral activity against HCV J6/JFH/JC-1 infected in human Huh7.5 cells assessed as inhibition of NS3/4A A156T mutant levels at 0.01 to 1 uM treated with fresh media containing compound every 2 days by Western blot method; assay type: functional, organism-based; details: Hepacivirus hominis
Hepatitis C virus [10] = experiment: Antiviral activity against HCV J6/JFH/JC-1 infected in human Huh7.5 cells assessed as inhibition of viral core protein levels at 0.05 uM preincubated for 2 hrs followed by centrifugation for 4 hrs and subsequent addition of Huh7.5 cells measured within 72 hrs by Western blot method; assay type: functional, organism-based; details: Hepacivirus hominis
[11] = Cytotoxicity against human Huh7.5 cells after 72 hrs by MTT assay; assay type: cell-based
[12] = Selectivity index, ratio of CC50 for human Huh7.5 cells to EC50 for HCV J6/JFH/JC-1; assay type: toxicity; details: read-out: Ratio CC50/EC50
Hepatitis C virus [13] = experiment: Antiviral activity against HCV J6/JFH/JC-1 infected in human Huh7.5 cells harboring NS3/4A A156T mutant assessed as inhibition of viral core protein levels at 0.01 to 1 uM treated with fresh media containing compound every 2 days by Western blot method; assay type: functional, organism-based; details: Hepacivirus hominis
Hepatitis C virus [14] = experiment: Antiviral activity against HCV infected in human GS4.3 cells assessed as inhibition of viral core protein levels at 0.8 uM treated with fresh media containing compound every 2 days measured after 6 days by Western blot method; assay type: functional, organism-based; details: Hepacivirus hominis
Hepatitis C virus [15] = experiment: Antiviral activity against 22.5 to 90 IU/cell of HCV J6/JFH/JC-1 infected in human Huh7.5 cells assessed as inhibition of viral core protein levels at 0.05 uM treated with fresh media containing compound every 2 days by Western blot method; assay type: functional, organism-based; details: Hepacivirus hominis
Hepatitis C virus [16] = experiment: Antiviral activity against HCV infected in human GS4.3 cells assessed as inhibition of NS3/4A levels at 0.8 uM treated with fresh media containing compound every 2 days measured after 6 days by Western blot method; assay type: functional, organism-based; details: Hepacivirus hominis
Hepatitis C virus [17] = experiment: Antiviral activity against 22.5 to 90 IU/cell of HCV J6/JFH/JC-1 infected in human Huh7.5 cells assessed as inhibition of NS3/4A levels at 0.05 uM treated with fresh media containing compound every 2 days by Western blot method; assay type: functional, organism-based; details: Hepacivirus hominis
Hepatitis C virus [18] = experiment: Antiviral activity against HCV J6/JFH/JC-1 infected in human Huh7.5 cells assessed as inhibition of NS3/4A S282T mutant levels at 0.01 to 1 uM treated with fresh media containing compound every 2 days by Western blot method; assay type: functional, organism-based; details: Hepacivirus hominis
Hepatitis C virus [19] = experiment: Antiviral activity against HCV J6/JFH/JC-1 infected in human Huh7.5 cells harboring […] S282T mutant assessed as inhibition of viral core protein levels at 0.01 to 1 uM treated with fresh media containing compound every 2 days by Western blot method; assay type: functional, organism-based; details: Hepacivirus hominis

Structure (SMILES)	inhibition (Hepatitis C virus [1])	EC50 (Hepatitis C virus [2])	inhibition (Hepatitis C virus [3])	inhibition (Hepatitis C virus [4])	inhibition (Hepatitis C virus [5])	inhibition (Hepatitis C virus [6])	inhibition (Hepatitis C virus [7])	inhibition (Hepatitis C virus [8])	inhibition (Hepatitis C virus [9])	inhibition (Hepatitis C virus [10])	CC50 at 72 h [11]	selectivity ratio [12]	inhibition (Hepatitis C virus [13])	inhibition (Hepatitis C virus [14])	inhibition (Hepatitis C virus [15])	inhibition (Hepatitis C virus [16])	inhibition (Hepatitis C virus [17])	inhibition (Hepatitis C virus [18])	inhibition (Hepatitis C virus [19])
CCC[C@H](NC(=O)[C@@H]1[C@H]2CCC[C@H]2CN1C(=O)[C@@H](NC(=O)[C@@H](NC(=O)c1cnccn1)C1CCCCC1)C(C)(C)C)C(=O)C(=O)NC1CC1 [TELAPREVIR]	Active	0.03 µM	inactive	Tde	Tde	Active	Active	Active	inactive	inactive	25.2 µM	840	inactive	–	–	–	–	–	–
CC(C)OC(=O)[C@H](C)NP(=O)(OC[C@H]1O[C@@H](n2ccc(=O)[nH]c2=O)[C@](C)(F)[C@@H]1O)Oc1ccccc1 (some centres undefined)	–	–	–	–	–	–	–	–	–	–	–	–	–	Active	inactive	Active	inactive	inactive	inactive

Reference: ChEMBL document CHEMBL4251597, “Discovery and evolution of aloperine derivatives as a new family of HCV inhibitors with novel mechanism” (Eur J Med Chem, 2018)
